BindingDB's records for PubMed 30795990 (n/a, 2019)

Biological target: Cyclin-dependent kinase 11B (Homo sapiens) (UniProt P21127)
Assay: Inhibition of GST-tagged human recombinant CDK11 (1 to 795 residues) expressed in baculovirus expression system

Chain of Cyclin-dependent kinase 11B (Homo sapiens) (P21127 whole entry, looked up, the tested form may be a part): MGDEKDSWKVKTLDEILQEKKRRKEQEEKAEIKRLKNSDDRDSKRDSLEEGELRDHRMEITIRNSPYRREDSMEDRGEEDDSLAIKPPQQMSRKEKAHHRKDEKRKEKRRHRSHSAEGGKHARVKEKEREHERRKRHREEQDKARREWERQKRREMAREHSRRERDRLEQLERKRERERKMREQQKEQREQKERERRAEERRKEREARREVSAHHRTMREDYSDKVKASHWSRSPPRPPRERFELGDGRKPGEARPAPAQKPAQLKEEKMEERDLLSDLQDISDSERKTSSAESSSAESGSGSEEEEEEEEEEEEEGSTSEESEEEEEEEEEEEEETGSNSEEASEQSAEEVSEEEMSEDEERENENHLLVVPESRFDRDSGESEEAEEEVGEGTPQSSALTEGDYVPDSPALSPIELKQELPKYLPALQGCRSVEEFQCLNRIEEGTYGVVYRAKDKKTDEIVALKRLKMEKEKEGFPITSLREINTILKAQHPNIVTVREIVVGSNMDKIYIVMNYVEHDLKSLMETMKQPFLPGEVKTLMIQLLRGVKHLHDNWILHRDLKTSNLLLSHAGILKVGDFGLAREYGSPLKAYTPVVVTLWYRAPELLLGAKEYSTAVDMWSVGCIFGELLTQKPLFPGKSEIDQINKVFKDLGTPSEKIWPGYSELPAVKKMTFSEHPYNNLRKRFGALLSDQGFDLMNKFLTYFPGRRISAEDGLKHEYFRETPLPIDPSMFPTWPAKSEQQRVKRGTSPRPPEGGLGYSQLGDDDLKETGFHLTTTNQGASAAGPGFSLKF

IC50: > 1000 nM
SMILES: O=C(c1ccc2c(c1)OCCO2)C1CCN(c2ncnc3sccc23)CC1
